{"source": "patent US20260144802A1", "about": "“POST-OPERATIVE DELIRIUM SUPPRESSANT” (priority 2022, published 2026)", "key": {"[1]": {"system": "post-operative delirium model rats", "experiment": "Trace memory conditioning test (trace memory test and context memory test) in aged post-operative delirium model rats", "assay_type": "in vivo, rat", "conditions": "SD male elderly rats with laparotomy, 10 mg/kg intraperitoneally immediately after surgery, vs laparotomy+solvent", "source_text": "(§1) Forty (40) SD male elderly rats of 19 to 24 months of age were randomly divided into a control group, an ALLO administration group, a laparotomy+solvent administration group, and a laparotomy+ALLO administration group by 10 rats.\nRats in the laparotomy+solvent administration group and the laparotomy+ALLO administration group were anesthetized with 1.5 to 2.0% isoflurane, and then underwent a median incision of 2 cm in the abdomen. The small intestine was pulled out by about 5 cm from the laparotomy site and extended with a finger for 3 minutes. Next, the abdomen was closed, and local infiltration anesthesia was applied to the wound with 0.2% ropivacaine for post-operative pain. To rats in the laparotomy+ALLO administration group, 10 mg/kg of brexanolone was intraperitoneally administered immediately after surgery. To rats in the laparotomy+solvent administration group, only the same amount of solvent was administered instead of brexanolone. […]\nTwelve (12) hours after acquisition of memory of stimulation, a “trace memory test” was performed. Specifically, “only sound stimulation” was performed under different gauges, and freezing behavior at that time was measured.\nFinally, 4 hours after the trace memory test, rats were placed under a cage similar to the initial memory acquisition cage and freezing behavior of the rats without stimulation was measured as a “context memory test”."}, "IL-1β mRNA": {"system": "IL-1β mRNA", "experiment": "IL-1β mRNA expression in the hippocampus by RT-PCR after laparotomy", "assay_type": "in vivo, rat", "conditions": "Example 4, 12 hours after surgery, vs laparotomy+solvent, FIG. 5", "experimental": "as §1\nRats in the laparotomy group were subjected to laparotomy in the same manner as in Example 1. To rats in the laparotomy+ALLO administration group, 10 mg/kg of brexanolone was intraperitoneally administered immediately after surgery. To rats in the laparotomy+solvent administration group, only the same amount of solvent was administered instead of brexanolone.\nRats in the control group and the ALLO administration group were not subjected to laparotomy, and only subjected to anesthesia with isoflurane and local infiltration anesthesia with ropivacaine in the same manner. […]\nTwelve (12) hours after surgery, the hippocampus, which is considered to be strongly related to an onset of post-operative delirium, was extracted, and mRNA expression levels of IL-1β and TNFα, which are inflammatory cytokines suspected to be related to an onset mechanism of post-operative delirium, were measured by an RT-PCR method. After the trace memory conditioning test of Example 1, the hippocampus was extracted at 48 hours after the laparotomy, and expression levels of IL-1 and TNFα in the hippocampus sample were measured by an ELISA method. […]"}}}
{"smiles": "CC(=O)[C@H]1CC[C@H]2[C@@H]3CC[C@H]4C[C@H](O)CC[C@]4(C)[C@H]3CC[C@]12C", "note": "[brexanolone]", "values": [{"measurement": "attention (proportion of freezing behavior time, trace memory test)", "setting": "[1]; FIG. 1(1)", "result": "significantly higher"}, {"measurement": "cognitive abilities (freezing behavior, context memory test)", "setting": "[1]; FIG. 1(2)", "result": "significantly higher"}, {"measurement": "relative expression level of IL-1β mRNA in the hippocampus", "setting": "IL-1β mRNA; 10 mg/kg intraperitoneally 30 minutes before anesthesia", "result": "significantly reduce"}]}
{"smiles": "C[C@@]1(O)CC[C@H]2[C@H](CC[C@@H]3[C@@H]2CC[C@]2(C)[C@@H](C(=O)Cn4cc(C#N)cn4)CC[C@@H]32)C1", "note": "[zuranolone]", "values": [{"measurement": "relative expression level of IL-1β mRNA in the hippocampus", "setting": "IL-1β mRNA; 3 mg/kg orally 30 minutes before anesthesia", "result": "significantly reduce"}]}
